“Also recorded” adds a separate entry of the source. d = 2'-deoxy (DNA); r = 2'-OH (RNA)
Tests used:
tubulin [1] = assay: Western blot of tubulin protein level in SVEC4-10 endothelial cells after RNA interference; type: cell-based, mouse; conditions: SVEC4-10 cells, Western blot (FIG. 9A)
Experimental: (§1) RNA Interference: RNA interference was performed with Qiagen's 2-For-Silencing siRNA Duplexes. Cells were plated in 6-well plates the day before transfection. 2.5 μg siRNA were diluted in 100 μL buffer EC-R (Qiagen). 7.5 μL RNAiFect transfection reagent (Qiagen) were added to form complexes. After incubation for 15 minutes at room temperature, the complexes were added to the cells. Two days later, the cells were again transfected with the same amount of siRNA. Cells were assayed after three more days' incubation. The sequences for Gα13 siRNA oligonucleotides were r(GUA CGA CUU UGA AAU UAA A)dTdT (SEQ ID NO: 6) for the sense strand and r(UUU AAU UUC AAA GUC GUA C)dTdC (SEQ ID NO: 7) for the antisense strand. The sequences for the second pair of oligonucleotides used in the interference assay (data not shown) were r(GGG UGA GUC UGU AAA GUA U)dTdT (SEQ ID NO: 8) for the sense strand and r(AUA CUU UAC AGA CUC ACC C)dAdG (SEQ ID NO: 9) for the antisense strand. The control siRNA oligonucleotides were supplied by Qiagen.

mouse Gα13 [2] = assay: Western blot of Gα13 protein level in MEF cells after RNA interference; type: cell-based; conditions: wild-type MEF cells, siRNA transfection, Western blot (FIG. 3C)
Experimental: as §1

Gα12 [3] = assay: Western blot of Gα12 protein level in MEF cells after RNA interference; type: cell-based, mouse; conditions: siRNA transfected MEF cells, Western blot (FIG. 3C)
Experimental: as §1

mouse Gα13 [4] = assay: Western blot of Gα13 protein level in SVEC4-10 endothelial cells after RNA interference; type: cell-based; conditions: SVEC4-10 cells, Western blot (FIG. 9A)
Experimental: as §1

MEF cells [5] = assay: Chamber cell migration assay, siRNA-treated MEF cells; type: cell-based, mouse
Experimental: (§2) Chamber Cell Migration Assay: Cell migration was assayed in Boyden chambers [8.0 μm pore size polyethylene terephthalate membrane, FALCON cell culture insert (Becton-Dickinson)] (Shan et al., Proc Natl Acad Sci USA 102: 3772-3776 (2005); Yang and Huang, J Biol Chem 280: 27130-27137 (2005)). Cells were first trypsinized and counted. Then 5-10×10^4 cells in serum free medium (300 μL) were added to the upper chamber, and 500 μL of appropriate medium with 10% FBS or 20 ng/mL PDGF were added to the lower chamber. Transwells were incubated for 4-6 hours at 37° C. Cells on the inside of the transwell inserts were removed with a cotton swab, and cells on the underside of the insert were fixed and stained. Photographs of three random fields were taken, and the number of cells counted to determine the average number of cells that had transmigrated.
(§3) RNA Interference: RNA interference was performed with Qiagen's 2-For-Silencing siRNA Duplexes. Cells were plated in 6-well plates the day before transfection. 2.5 μg siRNA were diluted in 100 μL buffer EC-R (Qiagen). 7.5 μL RNAiFect transfection reagent (Qiagen) were added to form complexes. After incubation for 15 minutes at room temperature, the complexes were added to the cells. Two days later, the cells were again transfected with the same amount of siRNA. Cells were assayed after three more days' incubation. […]

tubulin [6] = assay: Western blot of tubulin protein level in MEF cells after RNA interference; type: cell-based, mouse; conditions: siRNA transfected MEF cells, Western blot (FIG. 3C)
Experimental: as §1

Gα12 [7] = assay: Western blot of Gα12 protein level in SVEC4-10 endothelial cells after RNA interference; type: cell-based, mouse; conditions: SVEC4-10 cells, Western blot (FIG. 9A)
Experimental: as §1

MEF cells [8] = assay: Wound healing assay, siRNA-treated MEF cells; type: cell-based, mouse; conditions: PDGF stimulation (FIG. 3E)
Experimental: Wound Healing Assay: Wild type and Gα12^−/−Gα13^−/− MEF cells isolated from E8.0 Gα12^−/−Gα13^−/− embryos (Gu et al., Proc Natl Acad Sci USA 99: 9352-9357 (2002)) in Dulbecco's Modified Eagle Medium (DMEM) (Invitrogen) containing 10% FBS were seeded into wells of 24-multiwell plates (Becton-Dickinson) (Shan et al., Proc Natl Acad Sci USA 102: 3772-3776 (2005); Yang and Huang, J Biol Chem 280: 27130-27137 (2005)). After they grew to confluency, wounds were made with sterile pipet tips. Cells were washed with Phosphate Buffered Saline (PBS) and refreshed with medium containing 10% fetal bovine serum (FBS) or 20 ng/mL platelet-derived growth factor (PDGF-BB). After overnight incubation at 37° C., cells were fixed and photographed. MEF cells were transfected with Lipofectamine-2000 (transfection efficiency was 10 to 30%) (Invitrogen).
as §3

[9] = test system: mouse endothelial SVEC4-10 cells; assay: Chamber assay of VEGF-induced migration of SVEC4-10 endothelial cells; type: cell-based; conditions: chamber assay (FIG. 9B)
Experimental: as §2, with “Then 5-10×10^4 cells in serum free medium (300 μL) were added to the upper chamber, and 500 μL of appropriate medium with 10% FBS or 20 ng/mL PDGF were added to the lower chamber.” left out
as §1, with “The sequences for the second pair of oligonucleotides used in the interference assay (data not shown) were r(GGG UGA GUC UGU AAA GUA U)dTdT (SEQ ID NO: 8) for the sense strand and r(AUA CUU UAC AGA CUC ACC C)dAdG (SEQ ID NO: 9) for the antisense strand. The control siRNA oligonucleotides were supplied by Qiagen.” left out

In the case of “r(GUA CGA CUU UGA AAU UAA A)dTdT (sense GUACGACUUUGAAAUUAAATT; antisense UUUAAUUUCAAAGUCGUACTC; siRNA; sugars from the 5' end r19 d2, backbone not given here) [Gα13 siRNA, siRNA duplex against mouse Gα13]”, the “protein level of tubulin” value (tubulin [1]) is reported as “no effect”, the “level of endogenous mouse Gα13 protein” value (mouse Gα13 [2]) is reported as “significantly reduced” and the “protein level of Gα12” value (Gα12 [3]) is reported as “not changed”. The “endogenous mouse Gα13 protein level” value (mouse Gα13 [4]) was “reduced”, the “cell migratory response to PDGF stimulation, chamber assay” value (MEF cells [5]; PDGF stimulation (FIG. 3D)) was “defective cell migratory response” and the “migration of cells without PDGF, compared with control RNAi” value (MEF cells [5]; without PDGF (or other stimuli), data not shown) was “not significantly different”. The “protein level of tubulin” value (tubulin [6]) was “not changed”, the “protein level of Gα12” value (Gα12 [7]) was “no effect” and the “cell migratory response to PDGF stimulation, wound-healing assay” value (MEF cells [8]) was “defective cell migratory response; also recorded: reduced”. For the same substance, the “VEGF-induced endothelial cell migration” value [9] was “reduced”.

From patent US8383597B2, “G proteins in tumor growth and angiogenesis” (Cornell Research Foundation, Inc., priority 2006, dated 2013)
